Test results published in PubChem BioAssay (NCI).
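Results reflect a 48-hour exposure of cells in 96-well plates to compound at five concentrations. GI50 = concentration required for 50% inhibition of growth. Definition used: TGI = concentration required for complete inhibition of growth.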

Key:
Experiment in all cases: NCI tumour cell line growth inhibition, 48 h
786-0 renal = test system: 786-0 renal
A549 NSCLC = test system: A549 NSCLC
ACHN renal = test system: ACHN renal
BT-549 breast = test system: BT-549 breast
CAKI-1 renal = test system: CAKI-1 renal
CCRF-CEM leukemia = test system: CCRF-CEM leukemia
COLO 205 colon = test system: COLO 205 colon
DU-145 prostate = test system: DU-145 prostate
EKVX NSCLC = test system: EKVX NSCLC
HCT-116 colon = test system: HCT-116 colon
HCT-15 colon = test system: HCT-15 colon
HL-60(TB) leukemia = test system: HL-60(TB) leukemia
HOP-62 NSCLC = test system: HOP-62 NSCLC
HOP-92 NSCLC = test system: HOP-92 NSCLC
HS 578T breast = test system: HS 578T breast
HT29 colon = test system: HT29 colon
IGROV1 ovarian = test system: IGROV1 ovarian
KM12 colon = test system: KM12 colon
LOX IMVI melanoma = test system: LOX IMVI melanoma
M14 melanoma = test system: M14 melanoma
MALME-3M melanoma = test system: MALME-3M melanoma
MCF7 breast = test system: MCF7 breast
MDA-MB-231 breast = test system: MDA-MB-231 breast
MDA-MB-435 = test system: MDA-MB-435
MOLT-4 leukemia = test system: MOLT-4 leukemia
NCI-H226 lung = test system: NCI-H226 lung
NCI-H23 lung = test system: NCI-H23 lung
NCI-H460 lung = test system: NCI-H460 lung
NCI-H522 lung = test system: NCI-H522 lung
NCI/ADR-RES ovarian = test system: NCI/ADR-RES ovarian
OVCAR-3 ovarian = test system: OVCAR-3 ovarian
OVCAR-4 ovarian = test system: OVCAR-4 ovarian
OVCAR-5 ovarian = test system: OVCAR-5 ovarian
OVCAR-8 ovarian = test system: OVCAR-8 ovarian
PC-3 prostate = test system: PC-3 prostate
RPMI-8226 leukemia = test system: RPMI-8226 leukemia
RXF 393 renal = test system: RXF 393 renal
SF-268 CNS = test system: SF-268 CNS
SF-295 CNS = test system: SF-295 CNS
SF-539 CNS = test system: SF-539 CNS
SK-MEL-2 melanoma = test system: SK-MEL-2 melanoma
SK-MEL-28 melanoma = test system: SK-MEL-28 melanoma
SK-MEL-5 melanoma = test system: SK-MEL-5 melanoma
SK-OV-3 ovarian = test system: SK-OV-3 ovarian
SN12C renal = test system: SN12C renal
SNB-19 CNS = test system: SNB-19 CNS
SW-620 colon = test system: SW-620 colon
T-47D breast = test system: T-47D breast
TK-10 renal = test system: TK-10 renal
U251 CNS = test system: U251 CNS
UACC-257 melanoma = test system: UACC-257 melanoma
UACC-62 melanoma = test system: UACC-62 melanoma
UO-31 renal = test system: UO-31 renal

## CN1C(=O)/C(=C/c2c(Cl)[nH]c3ccccc23)c2ccccc21
786-0 renal
  GI50: 32.4 µM
  TGI: > 100 µM
A549 NSCLC
  GI50: 79.7 µM
  TGI: > 100 µM
ACHN renal
  GI50: 32.9 µM
  TGI: > 100 µM
BT-549 breast
  GI50: 37.4 µM
  TGI: 94.3 µM
CAKI-1 renal
  GI50: 29.8 µM
  TGI: 89.5 µM
CCRF-CEM leukemia
  GI50: 29 µM
  TGI: > 100 µM
COLO 205 colon
  GI50: 18.1 µM
  TGI: 34.9 µM
DU-145 prostate
  GI50: 89.5 µM
  TGI: > 100 µM
EKVX NSCLC
  GI50: 75.2 µM
  TGI: > 100 µM
HCT-116 colon
  GI50: 25.9 µM
  TGI: 87.8 µM
HCT-15 colon
  GI50: 34.1 µM
  TGI: > 100 µM
HL-60(TB) leukemia
  GI50: 32.6 µM
  TGI: 93.4 µM
HOP-62 NSCLC
  GI50: 31.3 µM
  TGI: > 100 µM
HOP-92 NSCLC
  GI50: 37 µM
  TGI: > 100 µM
HS 578T breast
  GI50: 28.9 µM
  TGI: 72.9 µM
HT29 colon
  GI50: 25.5 µM
  TGI: 98.5 µM
IGROV1 ovarian
  GI50: 37.6 µM
  TGI: > 100 µM
KM12 colon
  GI50: 2.05 µM
  TGI: 10.1 µM
LOX IMVI melanoma
  GI50: 43.3 µM
  TGI: > 100 µM
M14 melanoma
  GI50: 19.8 µM
  TGI: 65.8 µM
MALME-3M melanoma
  GI50: 25.5 µM
  TGI: > 100 µM
MCF7 breast
  GI50: 53.7 µM
  TGI: > 100 µM
MDA-MB-231 breast
  GI50: 39 µM
  TGI: > 100 µM
MDA-MB-435
  GI50: 23.8 µM
  TGI: 59.9 µM
MOLT-4 leukemia
  GI50: 41.8 µM
  TGI: > 100 µM
NCI-H226 lung
  GI50: 48.3 µM
  TGI: > 100 µM
NCI-H23 lung
  GI50: 38.2 µM
  TGI: > 100 µM
NCI-H460 lung
  GI50: 46.7 µM
  TGI: > 100 µM
NCI-H522 lung
  GI50: 21.4 µM
  TGI: 80.1 µM
NCI/ADR-RES ovarian
  GI50: 25.5 µM
  TGI: 61.2 µM
OVCAR-3 ovarian
  GI50: 22.6 µM
  TGI: 58.7 µM
OVCAR-4 ovarian
  GI50: 52.3 µM
  TGI: > 100 µM
OVCAR-5 ovarian
  GI50: 55.9 µM
  TGI: > 100 µM
OVCAR-8 ovarian
  GI50: 63.4 µM
  TGI: > 100 µM
PC-3 prostate
  GI50: 29.5 µM
  TGI: > 100 µM
RPMI-8226 leukemia
  GI50: 24.1 µM
  TGI: > 100 µM
RXF 393 renal
  GI50: 53.4 µM
  TGI: > 100 µM
SF-268 CNS
  GI50: 66.7 µM
  TGI: > 100 µM
SF-295 CNS
  GI50: 25.9 µM
  TGI: 85.5 µM
SF-539 CNS
  GI50: 33 µM
  TGI: 75.6 µM
SK-MEL-2 melanoma
  GI50: 45.1 µM
  TGI: > 100 µM
SK-MEL-28 melanoma
  GI50: 35 µM
  TGI: > 100 µM
SK-MEL-5 melanoma
  GI50: 14.6 µM
  TGI: 51.2 µM
SK-OV-3 ovarian
  GI50: 25.8 µM
  TGI: 67.1 µM
SN12C renal
  GI50: 77.2 µM
  TGI: > 100 µM
SNB-19 CNS
  GI50: 35.4 µM
  TGI: > 100 µM
SW-620 colon
  GI50: 35.8 µM
  TGI: > 100 µM
T-47D breast
  GI50: 22.5 µM
  TGI: 71.2 µM
TK-10 renal
  GI50: 14 µM
  TGI: 46.2 µM
U251 CNS
  GI50: 40.4 µM
  TGI: > 100 µM
UACC-257 melanoma
  GI50: > 100 µM
  TGI: > 100 µM
UACC-62 melanoma
  GI50: 37.4 µM
  TGI: > 100 µM
UO-31 renal
  GI50: 37.1 µM
  TGI: > 100 µM
